According to publication PMC5613772 (Biochemistry and Biophysics Reports, 2016):

Experiments:
[1] = biological target: T1, L. donovani Gcs full length (GcsF, LdGcs, Gcs) (Leishmania donovani, UniProt Q67BG3); assay: tryptophan fluorescence quenching; format: binding
T1 sequence (Q67BG3 1-687): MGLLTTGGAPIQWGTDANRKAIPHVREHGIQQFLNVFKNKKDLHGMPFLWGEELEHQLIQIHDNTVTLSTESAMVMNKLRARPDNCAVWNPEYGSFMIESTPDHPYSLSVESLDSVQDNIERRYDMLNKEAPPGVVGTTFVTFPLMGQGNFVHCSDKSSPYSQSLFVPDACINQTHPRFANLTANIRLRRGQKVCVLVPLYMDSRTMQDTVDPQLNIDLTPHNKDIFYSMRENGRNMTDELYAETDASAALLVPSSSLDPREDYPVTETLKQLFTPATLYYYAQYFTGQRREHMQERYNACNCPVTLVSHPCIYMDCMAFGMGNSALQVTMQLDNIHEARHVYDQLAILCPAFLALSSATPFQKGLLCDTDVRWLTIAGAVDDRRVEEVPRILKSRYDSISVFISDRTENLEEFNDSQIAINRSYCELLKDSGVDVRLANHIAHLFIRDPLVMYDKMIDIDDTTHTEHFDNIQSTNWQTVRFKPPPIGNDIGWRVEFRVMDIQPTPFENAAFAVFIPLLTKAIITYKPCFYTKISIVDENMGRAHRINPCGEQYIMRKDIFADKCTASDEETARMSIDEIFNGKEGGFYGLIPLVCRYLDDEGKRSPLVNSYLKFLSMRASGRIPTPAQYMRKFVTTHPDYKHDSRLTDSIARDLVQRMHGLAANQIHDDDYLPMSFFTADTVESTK

GcsC = GcsC (Leishmania donovani, UniProt Q67BG3); conditions: value said to be in Table 2 but not printed there
[2] = biological target: L. donovani Gcs full length (GcsF, LdGcs, Gcs) (Leishmania donovani, UniProt Q67BG3, R498A); assay: biochemical
[3] = biological target: L. donovani Gcs full length (GcsF, LdGcs, Gcs) (Leishmania donovani, UniProt Q67BG3, E99A); assay: biochemical
[4] = biological target: L. donovani Gcs full length (GcsF, LdGcs, Gcs) (Leishmania donovani, UniProt Q67BG3, E55A); assay: biochemical
[5] = biological target: L. donovani Gcs full length (GcsF, LdGcs, Gcs) (Leishmania donovani, UniProt Q67BG3, E92A); assay: biochemical

Nc1ncnc2c1ncn2[C@@H]1O[C@H](COP(=O)(O)OP(=O)(O)OP(=O)(O)O)[C@@H](O)[C@H]1O [ATP]
Kd [1]: 2.7 ± 0.3 µM
ITC or tryptophan fluorescence quenching (not told) (GcsC): GcsT and C-terminal constructs also show comparable binding with ATP
Kd [2]: 1550 ± 238 µM
Kd [3]: 5.8 ± 0.3 µM
Kd [4]: 2.5 ± 1 µM
Kd [5]: 3235 ± 0.937 µM

N[C@@H](CS)C(=O)O [L-Cysteine]
Kd [1]: 177 ± 2.6 µM
Kd [4]: 95 ± 2.1 µM
Kd [5]: 115 ± 0.35 µM

N[C@@H](CCC(=O)O)C(=O)O [L-Glutamate]
Kd [1]: 93.7 ± 1.8 µM
Kd [2]: 890 ± 0.167 µM
Kd [3]: 666 ± 0.3 µM
Kd [4]: 793 ± 0.182 µM
Kd [5]: 107 ± 0.16 µM
